Experimental findings from the supplement of paper PMC6723410 are described below.

The subject of assay [1] is GUMC-403. In words: AC50 for reduction of cell viability; higher = less potent. The settings on record: 48 h.
The subject of assay [2] is GUMC-403. In words: viability at highest tested concentration (max response) relative to DMSO (% of DMSO control); higher = less cytotoxic. As to conditions: library / dose series: MIPE library, 11-point 1:3 dilution; top concentration 46.1 µM; 48 h. The gist of the method: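 Patient-derived GUMC-403 papilloma cells grown by conditional reprogramming were plated at 700/well in 5 μL F + Y medium in 1536-well plates and incubated overnight at 37 °C. They then received 23 nL of MIPE 4.0 compounds by pin tool (11-point 1:3 series) for 48 h. CellTiter-Glo luminescence was read on a ViewLux and normalised with DMSO wells as 100% and empty wells as 0%. The value is viability at the highest tested concentration relative to DMSO control.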

The mark [3] stands for this setting: library / dose series: MIPE library, 11-point 1:3 dilution.

SMILES strings stand for the structures.

For `OC[C@H]1OC(OC2=CC3=C(C(=C2)O)C(=O)\C(=C/O3)C4=CC=C(O)C=C4)[C@H](O)[C@@H](O)[C@@H]1O` (some centres not stated), the “AC50 for reduction of cell viability” value in the assay on GUMC-403 [1] (setting [3]) is 9.35 µM. Further, the viability with GUMC-403 [2] stood at 21.4.
In the same order, the values of `CC#C[C@]1(O)CC[C@H]2[C@@H]/3CCC/4=C/C(=O)CCC4=C3[C@H](C[C@]12C)C5=CC=C(C=C5)N(C)C` are 0.833 µM and 59.
In the same order, the values of `N[S+](=O)([O-])c1cccc2c1C(=O)c1cccc(O)c1C2=O` are 13.2 µM and 4.44.
In the same order, the values of `Cn1c2ccccc2c2c3c(c4c5ccccc5n(CCC#N)c4c21)CNC3=O` are 7.43 µM and 65.1.
Consider `CN(C)C1=CC=C(C=C1)C(C2=CC=C(C=C2)N(C)C)=C/3\C=C/C(/C=C3)=[N+](C)C`, for which the “AC50 for reduction of cell viability” value in the assay with GUMC-403 [1] (setting [3]) was 14.8 µM. Besides, the viability in the assay with GUMC-403 [2] was found to be 4.73.
On to `CNC(=O)[C@H](Cc1ccccc1)NC(=O)[C@H](CC(C)C)[C@H](CSc1cccs1)C(=O)NO`, for which the “AC50 for reduction of cell viability” value in the assay on GUMC-403 [1] (setting [3]) stood at 5.26 µM. The viability with GUMC-403 [2] was determined as 68.4.
In the same order, the values of `NC(=O)[C@@H](CCC(F)(F)F)N(Cc1ccc(-c2ncon2)cc1F)[S+](=O)([O-])c1ccc(Cl)cc1` are 0.132 µM and 76.2.
The like results for `COc1cc(Nc2ncc(F)c(Nc3ccc4c(n3)N(COP(=O)(O)O)C(=O)C(C)(C)O4)n2)cc(OC)c1OC` were, in that order, 0.935 µM and 34.2.
Turning to `Nc1nc(N)c2nc(-c3cccc(O)c3)c(-c3cccc(O)c3)nc2n1`, the “AC50 for reduction of cell viability” value in the assay on GUMC-403 [1] (setting [3]) worked out at 5.26 µM. The compound also yielded a viability in the assay with GUMC-403 [2] of 32.4.
With `O=C(Nc1cccc(Nc2ncc(Br)c(NCCc3cnc[nH]3)n2)c1)N1CCCC1`, in the assay on GUMC-403 [1] (setting [3]), the “AC50 for reduction of cell viability” value was 20.9 µM. The same compound came in with a viability in the assay on GUMC-403 [2] of 6.39.
As to `COc1cc(C[C@@H](CO)[C@H](CO)Cc2ccc(O)c(OC)c2)ccc1O`, the “AC50 for reduction of cell viability” value in the assay with GUMC-403 [1] (setting [3]) came to 2.64 µM. Moreover, the viability in the assay on GUMC-403 [2] was determined as 34.9.
In the same order, the values of `Nc1cccc(-c2cc3c(Oc4cccc(O)c4)ncnc3[nH]2)c1` are 8.33 µM and 58.
Take `COC1=CC(c2cc3ccccc3[nH]2)=N/C1=C/c1[nH]c(C)cc1C`: the “AC50 for reduction of cell viability” value with GUMC-403 [1] (setting [3]) was determined as 10.5 µM. The compound further displayed a viability in the assay with GUMC-403 [2] of 26.6.
In the same order, the values of `O=C1\C=C(/OC2=C1C=CC=C2C3=CC=CC=C3)N4CCOCC4` are 5.9 µM and 61.6.
The like results for `CCC[C@H](NC(=O)/C(C#N)=C/c1cccc(Br)n1)c1ccccc1` were, in that order, 16.6 µM and 19.1.
As for `Oc1ccc(-c2ccc(-c3cc(Nc4cccc(CNC5CC5)c4)[nH]n3)cc2)c(O)c1`, in the assay with GUMC-403 [1] (setting [3]), the “AC50 for reduction of cell viability” value stood at 13.2 µM. In addition, the viability in the assay on GUMC-403 [2] came out at 13.7.
In the same order, the values of `Cc1ccc(NC(=O)C2(c3ccc4c(c3)OC(F)(F)O4)CC2)nc1-c1cccc(C(=O)O)c1` are 1.66 µM and 6.42.
With `CC(C)C[C@H](NC(=O)[C@H](Cc1ccccc1)NC(=O)c1cnccn1)B(O)O`, the “AC50 for reduction of cell viability” value in the assay with GUMC-403 [1] (setting [3]) was 0.264 µM; in the assay with GUMC-403 [1] (library / dose series: NPC library, 8-point 1:5 dilution), 0.15 µM. Besides, the viability with GUMC-403 [2] came out at 3.84.
